According to patent US20210236664A1, “ALPHA PARTICLE FORMULATIONS FOR TREATMENT OF SOLID TUMORS” (The Johns Hopkins University, priority 2018, published 2021):

Assays:
[1] = tested on: castration resistant prostate cancer; settings: castration resistant prostate cancer patients; cited from earlier work
bladder cancer = settings: survive >300 d following treatment; cited from earlier work
[2] = Octanol partition coefficient
From the text: Partition coefficients will be as previously described with some minor modifications. Decristoforo, C., et al., 2008. Octanol and saline (pH=7.4) will be used to assess the […] of the proposed compounds. Briefly, the radiolabeled ^111In- and ^225Ac-labeled DOTA(GA)-alkyl chelates will be vortexed with octanol and saline then centrifuged to separate layers. Aliquots (3) from each layer will be removed and counted. The […] will be determined using the following equations:
Poct/saline=Log([activity]octanol/[activity]saline).
A greater than 95% purity was obtained following purification with a Seppak.

Hep G2 tumor = test: Tumor retention after intra-tumoral injection in hepatocellular carcinoma mouse model; format: in vivo, mice; settings: n=3
Procedure: ^111In-DOTA-tetradecylamine(TDA) was synthesized with a radiolabeling yield >95%. The retention of ^111In-DOTA-TDA within a hepatocellular carcinoma mouse model was evaluated; Hep G2 tumor-bearing SCID mice (24 hours, n=3) and NCG mice (48 hours, n=3) following intra-tumoral injections of ^111In-DOTA-TDA alone or as a Lipiodol emulsion (FIG. 6).

[Cl][223Ra][Cl] [XOFIGO®, Radium-223 Dichloride]
increased survival benefit [1]: 2.8 month

CO[C@@]12[C@H](COC(N)=O)C3=C(C(=O)C(C)=C(N)C3=O)N1C[C@@H]1N[C@@H]12 [mitomycin C]
survival of mice (bladder cancer): 40%

^111In-DOTA-tetradecylamine [^111In-DOTA-TDA]
Log Poct [2]: 1.57±0.005 | uptake within the tumor (Hep G2 tumor; 24 hours, Hep G2 tumor-bearing SCID mice): 103±65.0 % ID/g | uptake within the tumor (Hep G2 tumor; 48 hours, Hep G2 tumor-bearing NCG mice): 20.0±15.9 % ID/g
